{"source": "patent EP0503537B1", "about": "“6,9 Bis(substituted-amino)benzo-[g]isoquinoline-5,10-diones” (THE UNIVERSITY OF VERMONT, priority 1991, dated 1992)", "key": {"[1]": {"tested_on": "human colon adenocarcinoma cell line (Lovo)", "assay": "MTT cytotoxicity assay on human colon adenocarcinoma Lovo cells", "format": "cell-based", "conditions": "144 h, read-out: IC50 µg/ml±S.D. LoVo", "procedure": "(§1) The evaluation of the \"in vitro\" cytotoxic activity of the compounds of the invention was performed using a human colon adenocarcinoma cell line (Lovo) isolated from a metastatic nodule and a subline with aquired resistance to a number of antitumor agents, among which doxorubicin, VP-16 and vincristine. […] The compounds were tested according to the MTT assay (Mosman, T., \"Rapid Colorimetric assay for cellular growth and survival: application to proliferation and cytotoxicity assay\", J. Immunol. Methods, (1983), 65, 55-63; Green, L.M., \"Rapid colorimetric assay for cell viability; application to the quantitation of cytotoxic and growth inhibitory lymphokines\", J. Immunol. Methods, (1984), 70, 257-268) in comparison with mitoxantrone, ametantrone and doxorubicin.\n(§2) In vitro biological evaluation: MTT assay on human colon adenocarcinoma Lovo cells.\n(§3) The MTT assay was performed according to Mosmann, T., J. Immunol. Methods, (1983), 65, 55-63 and Green, L. M., J. Immunol. Methods, (1984), 70, 257-268.\n(§4) Immediately before use, compounds and reference standards are dissolved in proper solvent and subsequently further diluted in complete culture medium. Human colon adenocarcinoma cells Lovo and the subline resistant to doxorubicin (Lovo/DX) (2.5. 10^4 cells/ml) are plated in 96-well plates and preincubated for 24 hours in culture medium. After this time, the cells are exposed to drugs for 144 hours, then the thiazolyl blue tetrazolium bromide solution (MTT solution) is added and the cells are reincubated for 4 hours. The supernatant is removed and 150 µl of dimethylsulfoxide are added to solubilize formazan crystals. The plate is read at 570 nm with microplate reader and the inhibiting concentration of 50% cellular growth (IC50; µg/ml) is calculated."}, "[2]": {"tested_on": "Lovo/DX", "assay": "MTT cytotoxicity assay on doxorubicin-resistant subline Lovo/DX", "format": "cell-based, human", "conditions": "for IC50: Homo sapiens, LoVo/DX, MTT assay, 144 hrs drug exposure, read-out: IC50 µg/ml±S.D. LoVo/Dx; for R.I.: R.I. = (IC50 LoVo/Dx)/(IC50 LoVo)", "procedure": "as §1, §2, §3, §4"}, "[3]": {"tested_on": "P388 Murine Leukemia", "assay": "In vivo P388 murine leukemia (iv/iv, d 1, 4, 7)", "conditions": "for T/C% (range): median survival time; for TOX: toxic deaths/total number of mice; for LTS: tumor free at 60 days", "procedure": "P388 Murine Leukemia cells were maintained in vivo by serial intraperitoneal (i.p.) injections of 10^6 cells in DBA2 mice. For test purposes, CDF1 mice were inoculated intravenously (i.v.) with 10^6 P388 cells and treatment was initiated 24 hr later. The i.v. dose of drug was administered on days 1, 4 and 7. Mice were observed daily for signs of toxicity and survival. The date of death was recorded for each animal that died or was sacrificed during the 60 day study. The median survival time (MST) for each treatment group was calculated and the % T/C was determined using the following formula: % T/C = [(MST treated)/(MST control)] x 100 [formula]"}, "[4]": {"tested_on": "P388 Murine Leukemia", "assay": "In vivo ascitic P388 murine leukemia (ip/ip, d 1, 5, 9)", "parameters": "species or system CDF1 mice", "conditions": "for % T/C (range): median survival time; for TOX: toxic deaths/total No. of mice", "procedure": "Treatment was initiated approximately 24 hours after tumor transplantation and dosages of the drug were administered ip (P388 ip/ip) or iv (P388 iv/iv) according to preestablished protocols, usually at 3-day (P388 iv/iv) or 4-day (P388 ip/ip) intervals. The studies were done over a 60-day period and the date of death for each animal was recorded. The % T/C was determined using the mean survival time (MST) for each group according to the formula % T/C = [(MST treated)/(MST control)] x 100 [formula]\n(§5) P388 Murine Leukemia cells were maintained in vivo by serial intraperitoneal (ip) injections of 10^6 cells in DBA2 mice. For test purposes, CDF1 mice were inoculated i.p. with 10^6 P388 cells and treatment was initiated 24 hours later. The i.p dose of drug was administered on days 1, 5 and 9. Mice were observed daily for signs of toxicity and survival. The date of death was recorded for each animal that died or was sacrificed during the 60-day study. The median survival time (MST) for each treatment group was calculated and the % T/C was determined using the following formula: % T/C = [(MST treated)/(MST control)] x 100 [formula]"}, "[5]": {"tested_on": "murine Lewis Lung carcinoma", "assay": "In vivo murine Lewis Lung carcinoma (im/iv)", "parameters": "species or system C57b1/6 female mice", "conditions": "LEWIS LUNG im/iv 1,8,15; for T/C %: median survival time; for TOX: toxic deaths/total number of mice; for TWI %: tumor Weight Inhibition 7 days after last treatment", "procedure": "(§6) These tumor models are enclosed in the panel of eight transplanted tumors used by the U.S.-NCl as screen panel for selection of clinically useful antitumor agents (R.K.Y. Zee Cheng and C.C. Cheng, \"Screening and evaluation of anticancer agents\", Meth. and Find. Expl. Clin. Pharmacol., (1988), 10(2), 67-101).\nC57b1/6 female mice were trasplantated im (intralimbs) with 10^5 cells. […] The mean tumor weight for each treatment group was calculated according to Geran, R.I. et al., Cancer Chemother. Rep., (1972), 3, 51-61 and the TWI% was calculated 7 days after the last drug treatment using the formula: TWI% = 100-[(Mean tumor weight of treated mice)/(mean tumor weight of controls)] x 100. [formula]"}, "[6]": {"tested_on": "human MX-1 mammary carcinoma", "assay": "In vivo human MX-1 mammary carcinoma xenograft (sc/iv)", "conditions": "MX-1 sc/iv q 7d x 3; for TWI %: CD1 nu/nu female mice; for TOX: toxic deaths/total number of mice", "source_text": "as §6\nCD1 nu/nu female mice were transplantated sc (subcutaneously) with tumor fragments (about 1 mm x 1 mm x 1 mm). Treatment was given iv once a week for three weeks, when tumor weight reached an average of 150 mg. For all individual tumors the weight change (relative tumor weight) for the start of treatment (Vo) was expressed as Vt/Vo at each day of measurement (Vt). TWI% was calculated 7 days after the last drug treatment using the formula: TWI% = 100-[(mean relative tumor weight of treated mice)/(mean relative tumor weight of controls)] x 100. [formula]"}, "[7]": {"tested_on": "L1210 murine leukemia", "assay": "In vivo ascitic L1210 murine leukemia (ip/ip, d 1, 5, 9), protocol b, 10^5 cells", "parameters": "species or system CDF1 mice", "conditions": "for %T/C: median survival time; for TOX: toxic deaths/total No. of mice; for LTS: tumor free at 60 days", "procedure": "Dosages of the drugs were administered ip according to preestablished protocols, usually at 4-day intervals. The studies were done over a 60-day period and the date of death for each animal was recorded. The % T/C was determined using the mean survival time (MST) for each group according to the formula % T/C = [(MST treated)/(MST control)] x 100 [formula]\nas §5, with “• a) L1210 murine leukemia cells” for “P388 Murine Leukemia cells”, “by weekly” for “by serial”, “in BDF1” for “in DBA2”, “mice. For test purposes, mice were inoculated i.p. with 10^6 L1210 cells and treatment was initiated 24 hours later. The desired dose of drug was administered on days 1, 5 and 9. Mice were observed daily for signs of toxicity and survival. The date of death was recorded for each animal that died or was sacrificed during the 60-day study. […]” for “mice.”, “with 10^5 L1210” for “with 10^6 P388”, “The desired” for “The i.p”"}}, "note": "“And” between values parts separate entries of the source, which are not always exact repeats. Equal values may be shown once.", "data": [{"smiles": "NCCNc1ccc(NCCN)c2c1C(=O)c1ccncc1C2=O.O=C(O)/C=C\\C(=O)O.O=C(O)/C=C\\C(=O)O", "note": "[Compound 10i.maleate, 6,9-bis{[2-(amino)ethyl]amino}benzo[g]isoquinoline-5,10-dione dimaleate]", "values": [{"measurement": "IC50", "setting": "[1]", "result": "0.21 ± 0.08", "unit": "µg/mL"}, {"measurement": "IC50", "setting": "[2]", "result": "6.7 ± 1.8", "unit": "µg/mL"}, {"measurement": "R.I.", "setting": "[2]", "result": 31.8}, {"measurement": "T/C% (range)", "setting": "[3]; 18 mg/kg/day iv days 1,4,7, dimaleate", "result": "200% and 188%"}, {"measurement": "TOX", "setting": "[3]; 18 mg/kg/day iv days 1,4,7", "result": "0/16"}, {"measurement": "LTS", "setting": "[3]; 18 mg/kg/day iv days 1,4,7", "result": "0/16"}, {"measurement": "T/C% (range)", "setting": "[3]; 27 mg/kg/day iv days 1,4,7", "result": "203(181-227) %"}, {"measurement": "TOX", "setting": "[3]; 27 mg/kg/day iv days 1,4,7", "result": "2/32"}, {"measurement": "LTS", "setting": "[3]; 27 mg/kg/day iv days 1,4,7", "result": "0/32"}, {"measurement": "LTS (day 60)", "setting": "[4]; 25 mg/kg/day ip days 1,5,9", "result": "0/8"}, {"measurement": "% T/C (range)", "setting": "[4]; 25 mg/kg/day ip days 1,5,9", "result": 185, "unit": "%"}, {"measurement": "TOX", "setting": "[4]; 25 mg/kg/day ip days 1,5,9", "result": "0/8"}, {"measurement": "LTS (day 60)", "setting": "[4]; 37.5 mg/kg/day ip days 1,5,9", "result": "1/8"}, {"measurement": "% T/C (range)", "setting": "[4]; 37.5 mg/kg/day ip days 1,5,9", "result": 260, "unit": "%"}, {"measurement": "TOX", "setting": "[4]; 37.5 mg/kg/day ip days 1,5,9", "result": "1/8"}, {"measurement": "T/C %", "setting": "[5]; 40 mg/Kg/day", "result": 158, "unit": "%"}, {"measurement": "TOX", "setting": "[5]; 40 mg/Kg/day", "result": "0/10"}, {"measurement": "TWI %", "setting": "[5]; 40 mg/Kg/day", "result": 80, "unit": "%"}, {"measurement": "T/C %", "setting": "[5]; 60 mg/Kg/day", "result": 182, "unit": "%"}, {"measurement": "TOX", "setting": "[5]; 60 mg/Kg/day", "result": "1/10"}, {"measurement": "TWI %", "setting": "[5]; 60 mg/Kg/day", "result": 95, "unit": "%"}, {"measurement": "TWI %", "setting": "[6]; 17 mg/Kg/day", "result": 65, "unit": "%"}, {"measurement": "TOX", "setting": "[6]; 17 mg/Kg/day", "result": "0/7"}, {"measurement": "TWI %", "setting": "[6]; 26.6 mg/Kg/day", "result": 58, "unit": "%"}, {"measurement": "TOX", "setting": "[6]; 26.6 mg/Kg/day", "result": "0/7"}, {"measurement": "TWI %", "setting": "[6]; 40 mg/Kg/day", "result": 64, "unit": "%"}, {"measurement": "TOX", "setting": "[6]; 40 mg/Kg/day", "result": "1/5"}]}, {"smiles": "O=C1c2c(O)ccc(O)c2C(=O)c2c(NCCNCCO)ccc(NCCNCCO)c21", "note": "[Mitoxantrone, 5,8-dihydroxy-1,4-bis{[2-(2-hydroxyethylamino)ethyl]amino}anthracene-9,10-dione, reference compound]", "values": [{"measurement": "IC50", "setting": "[1]", "result": "0.01 ± 0.009", "unit": "µg/mL"}, {"measurement": "IC50", "setting": "[2]", "result": "0.29 ± 0.1", "unit": "µg/mL"}, {"measurement": "R.I.", "setting": "[2]", "result": 29.0}, {"measurement": "T/C% (range)", "setting": "[3]; 2 mg/kg/day iv days 1,4,7", "result": "162(154-167) %"}, {"measurement": "TOX", "setting": "[3]; 2 mg/kg/day iv days 1,4,7", "result": "0/42"}, {"measurement": "LTS", "setting": "[3]; 2 mg/kg/day iv days 1,4,7", "result": "0/42"}, {"measurement": "T/C% (range)", "setting": "[3]; 3 mg/kg/day iv days 1,4,7", "result": "185(167-217) %"}, {"measurement": "TOX", "setting": "[3]; 3 mg/kg/day iv days 1,4,7", "result": "4/78"}, {"measurement": "LTS", "setting": "[3]; 3 mg/kg/day iv days 1,4,7", "result": "0/78"}, {"measurement": "T/C% (range)", "setting": "[3]; 4 mg/kg/day iv days 1,4,7", "result": "118(89-133) %"}, {"measurement": "TOX", "setting": "[3]; 4 mg/kg/day iv days 1,4,7", "result": "20/24"}, {"measurement": "LTS", "setting": "[3]; 4 mg/kg/day iv days 1,4,7", "result": "0/24"}, {"measurement": "LTS (day 60)", "setting": "[4]; 1.5 mg/kg/day ip days 1,5,9", "result": "1/26"}, {"measurement": "% T/C (range)", "setting": "[4]; 1.5 mg/kg/day ip days 1,5,9", "result": "186(160-225) %"}, {"measurement": "TOX", "setting": "[4]; 1.5 mg/kg/day ip days 1,5,9", "result": "6/26"}, {"measurement": "LTS (day 60)", "setting": "[4]; 3 mg/kg/day ip days 1,5,9", "result": "1/42"}, {"measurement": "% T/C (range)", "setting": "[4]; 3 mg/kg/day ip days 1,5,9", "result": "173(142-205) %"}, {"measurement": "TOX", "setting": "[4]; 3 mg/kg/day ip days 1,5,9", "result": "21/42"}, {"measurement": "%T/C", "setting": "[7]; 1.5 mg/kg/day ip days 1,5,9", "result": 188, "unit": "%"}, {"measurement": "TOX", "setting": "[7]; 1.5 mg/kg/day ip days 1,5,9", "result": "0/8"}, {"measurement": "LTS", "setting": "[7]; 1.5 mg/kg/day ip days 1,5,9", "result": "1/8"}, {"measurement": "%T/C", "setting": "[7]; 3 mg/kg/day ip days 1,5,9", "result": 194, "unit": "%"}, {"measurement": "TOX", "setting": "[7]; 3 mg/kg/day ip days 1,5,9", "result": "1/8"}, {"measurement": "LTS", "setting": "[7]; 3 mg/kg/day ip days 1,5,9", "result": "1/8"}]}]}
